Measurements published in patent US20100137367A1, “NOVEL CRYSTALLINE BEPOTASTINE METAL SALT HYDRATE, METHOD FOR PREPARING SAME, AND PHARMACEUTICAL COMPOSITION COMPRISING SAME” (Hanmi Pharm. Co., Ltd., priority 2007, published 2010).
Like-named read-outs stand apart in the source and are kept apart here.

Assays:
[1] = Hygroscopicity of bepotastine salts (Table 1); format: physicochemical
From the text: Further, when the crystalline bepotastine metal salt hydrate of formula (I) of the present invention is stored under an extremely high-moisture condition, its moisture content don't increases substantially, thus, it is non-hygroscopic. In contrast, an alkaline metal salt of bepotastine, e.g., lithium salt, sodium salt, potassium salt, magnesium salt or barium salt of bepotastine; a transition metal salt of bepotastine, e.g., zinc salt, aluminum salt, bismuth salt, or iron salt of bepotastine; an organic amine salt of bepotastine, e.g., ammonium salt, ethyl amine salt, dimethyl amine salt, triethylamine salt or N-methyl glucamine salt of bepotastine; and an amino acidic salt of the bepotastine, e.g., arginine salt, lysine salt, or histidine salt of bepotastine, are mostly obtained as non-crystalline forms, and, even when they are obtained as crystalline forms, they are hygroscopic.

[2] = Effect of severe storage condition on the optical purity (chiral HPLC); format: physicochemical; details: for Change of optical purity during the storage / Optical purity (%) After standing at 60° C. and 75% R.H. for 4 weeks in closed condition / Optical purity (%) After standing at 60° C. and 75% R.H. for 4 weeks in open condition: 60° C., 75% R.H., 4 weeks
Method: For the measurement of the optical purity of the bepotastine, chiral HPLC was conducted under following conditions and the optical purity was calculated using the Equation 1.
• Detector: Ultraviolet ray spectrophotometer (detection wavelength: 225 nm) • Column: YMC Chiral β-CDs (4.6×250 mm, 5 μm) • Mobile phase: methanol/ammonium acetate buffer solution=45/55(v/v, %) • Flow rate: 0.8 ml/min
Optical Purity (%)=Ps/(Ps+Pr)×100 Equation 1
wherein • Ps is the peak area of bepotastine, and • Pr is the peak area of R-enantiomer of bepotastine.
The optical purities of respective bepotastine salts were determined.

[3] = Solubility test (saturation solubility); details: for Saturation solubility (mg/ml) pH 1.2 buffer solution: pH 1.2 buffer solution (simulates gastric juice); for Saturation solubility (mg/ml) pH 6.8 buffer solution: pH 6.8 buffer solution (simulates intestinal juice)
[4] = Moisture absorption test; format: physicochemical
[5] = 40° C. and 75% relative humidity
From the text: Accordingly, there have been attempts to convert bepotastine to an acid salt form having a high optical purity which is resistant to racemization.

## L-Arginine
[1]
  Hygroscopicity: Hygroscopic

## O.O.O=C([O-])CCCN1CCC(O[C@@H](c2ccc(Cl)cc2)c2ccccn2)CC1.O=C([O-])CCCN1CCC(O[C@@H](c2ccc(Cl)cc2)c2ccccn2)CC1.[Ca+2] [Calcium salt hydrate, Bepotastine Calcium Salt Dihydrate]
[2]
  Change of optical purity during the storage: remained unchanged
  Optical purity (%) After standing at 60° C. and 75% R.H. for 4 weeks in closed condition: 99.9%
  Optical purity (%) After standing at 60° C. and 75% R.H. for 4 weeks in open condition: 99.9%
  Optical purity (%) Before the test: 99.9%
[3]; pH 1.2
  Solubility compared with bepotastine benzenesulfonic acid salt: similar
[3]
  Saturation solubility (mg/ml) pH 1.2 buffer solution: 43.2 mg/ml
  Saturation solubility (mg/ml) pH 6.8 buffer solution: 61.6 mg/ml
[3]; pH 6.8
  Solubility relative to bepotastine benzenesulfonic acid salt: at least 2 times
[4]
  Hygroscopicity (conclusion of moisture absorption test): essentially non-hygroscopic
[4]; 25° C., 75% R.H.
  Water contents (%) Day 1: 4.3%
  Water contents (%) Day 3: 4.3%
  Water contents (%) Day 7: 4.4%
  Water contents (%) Day 15: 4.4%
  Water contents (%) initial: 4.3%
[4]; 40° C., 75% R.H.
  Water contents (%) Day 1: 4.4%
  Water contents (%) Day 3: 4.6%
  Water contents (%) Day 7: 4.5%
  Water contents (%) Day 15: 4.6%
  Water contents (%) initial: 4.3%
[4]; 40° C., 90% R.H., 15 days
  Increment of water content: less than 0.7%
[4]; 40° C., 90% R.H.
  Water contents (%) Day 1: 4.7%
  Water contents (%) Day 3: 4.9%
  Water contents (%) Day 7: 4.9%
  Water contents (%) Day 15: 5.0%
  Water contents (%) initial: 4.3%

## O=C(O)CCCN1CCC(OC(c2ccc(Cl)cc2)c2ccccn2)CC1.O=C(O)c1ccccc1 (stereo not shown) [bepotastine benzoic acid salt]
[5]
  Racemization under high moisture condition: slow racemization

## O=C(O)CCCN1CCC(O[C@@H](c2ccc(Cl)cc2)c2ccccn2)CC1 [Potassium]
[1]; listed as potassium salt of bepotastine
  Hygroscopicity: highly hygroscopic

## [Mg] [Magnesium]
[1]
  Hygroscopicity: Hygroscopic

## NCCCC[C@H](N)C(=O)O [L-Lysine]
[1]
  Hygroscopicity: Hygroscopic

## O=C(O)CCCN1CCC(O[C@@H](c2ccc(Cl)cc2)c2ccccn2)CC1 [Sodium]
[1]
  Hygroscopicity: Hygroscopic
[1]; listed as sodium salt of bepotastine
  Hygroscopicity: highly hygroscopic

## Zinc
[1]
  Hygroscopicity: Hygroscopic

## O=C(O)CCCN1CCC(O[C@@H](c2ccc(Cl)cc2)c2ccccn2)CC1.O=S(=O)(O)c1ccccc1 [Benzenesulfonic acid salt, Bepotastine Benzenesulfonic Acid Salt]
[2]
  Change of optical purity during the storage: decreases significantly
  Optical purity (%) After standing at 60° C. and 75% R.H. for 4 weeks in closed condition: 97.3%
  Optical purity (%) After standing at 60° C. and 75% R.H. for 4 weeks in open condition: 95.5%
  Optical purity (%) Before the test: 99.9%
[3]
  Saturation solubility (mg/ml) pH 1.2 buffer solution: 45.0 mg/ml
  Saturation solubility (mg/ml) pH 6.8 buffer solution: 28.1 mg/ml
[5]
  Racemization under high moisture condition: slow racemization
[4]; 25° C., 75% R.H.
  Water contents (%) Day 1: 0.6%
  Water contents (%) Day 3: 0.6%
  Water contents (%) Day 7: 0.7%
  Water contents (%) Day 15: 0.6%
  Water contents (%) initial: 0.4%
[4]; 40° C., 75% R.H.
  Water contents (%) Day 1: 0.7%
  Water contents (%) Day 3: 0.8%
  Water contents (%) Day 7: 0.8%
  Water contents (%) Day 15: 0.9%
  Water contents (%) initial: 0.4%
[4]; 40° C., 90% R.H.
  Water contents (%) Day 1: 2.4%
  Water contents (%) Day 3: 2.5%
  Water contents (%) Day 7: 2.4%
  Water contents (%) Day 15: 2.5%
  Water contents (%) initial: 0.4%
